# Reference: article PMC8906456, “Structural insights into the catalytic and inhibitory mechanisms of the flavin transferase FmnB in Listeria monocytogenes” (MedComm, 2022)
# Target: T1, FmnB (Listeria monocytogenes, UniProt A0A0H3GJF7)
# T1 construct: gene LMRG_02181; structure covers about residues 36-357
# T1 sequence (A0A0H3GJF7 20-360): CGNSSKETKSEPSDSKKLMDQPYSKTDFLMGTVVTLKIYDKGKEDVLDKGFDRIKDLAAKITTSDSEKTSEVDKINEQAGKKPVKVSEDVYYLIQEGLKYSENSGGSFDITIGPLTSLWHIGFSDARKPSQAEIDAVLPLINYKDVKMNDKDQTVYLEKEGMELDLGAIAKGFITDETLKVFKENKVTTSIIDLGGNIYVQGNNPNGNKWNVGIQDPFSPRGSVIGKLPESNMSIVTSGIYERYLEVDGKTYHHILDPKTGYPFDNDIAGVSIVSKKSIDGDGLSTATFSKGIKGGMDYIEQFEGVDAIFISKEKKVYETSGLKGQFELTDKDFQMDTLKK
# Assay: inhibition of PplA FMNylation, in-gel flavin fluorescence
# Assay type: biochemical
# Details: 10 uM to 4 mM inhibitor; 100 uM FAD, 50 uM PplA, 15 mM Mg2+, 16 °C; competitive
row,SMILES,"inhibition of PplA FMNylation, in-gel flavin fluorescence"
1,Nc1ncnc2c1ncn2[C@@H]1O[C@H](COP(=O)(O)OP(=O)(O)O)[C@@H](O)[C@H]1O [ADP],ADP demonstrated a much stronger inhibitory ability against FmnB activity (Figure 4A)
2,Nc1ncnc2c1ncn2[C@@H]1O[C@H](COP(=O)(O)O)[C@@H](O)[C@H]1O [AMP],"the enzymatic assays indicated that AMP, ADP and ATP could inhibit FmnB activity"
3,Nc1ncnc2c1ncn2[C@@H]1O[C@H](COP(=O)(O)OP(=O)(O)OP(=O)(O)O)[C@@H](O)[C@H]1O [ATP],"the enzymatic assays indicated that AMP, ADP and ATP could inhibit FmnB activity"
